Results published in the supplement of paper PMC11451515.

Columns and labels:
Settings in all cases: 48 h
SEM cells = assay: cell viability relative to DMSO control; higher = less cytotoxic
Procedure, shortened: (§1)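 Viability was expressed as a per-plate percentage of DMSO wells, with cell-free wells as background. Leukemia cells (NOMO1 or SEM at 500 cells/well, P12-Ichikawa at 1000 cells/well) were adapted for at least four passages in each medium and seeded in 1536-well plates (5 μl). Library compounds in DMSO were pin-dosed over an 11-point threefold series from 47 μM to 0.79 nM, and CellTiter-Glo One luminescence was read after 48 h at 37°C.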

NOMO1 [1] = assay: AUC of viability dose-response curve (% viability x log10 dose units); higher = less sensitive
Procedure, shortened: (§2)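 Viability of medium-adapted leukemia cells was measured by CellTiter-Glo One luminescence after 48 h at 37°C with library compounds in DMSO. Doses were 11 threefold steps from 47 μM to 0.79 nM, in 1536-well plates at 500 or 1000 cells/well. Signals were normalised per plate to DMSO and cell-free wells and fitted with a four-parameter log-logistic model on log10 dose. Area under the curve was integrated by trapezoidal rule, with curves exceeding full viability scaled and failed quality-control curves removed.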

P12-Ichikawa [2] = assay: as above
Procedure, shortened: as §2

NOMO1 [3] = assay: cell viability relative to DMSO control; higher = less cytotoxic
Procedure, shortened: as §1

P12-Ichikawa [4] = assay: as above
Procedure, shortened: as §1

O=C1N(c2ccccc2)c2ccccc2C1(Cc1ccncc1)Cc1ccncc1
SEM cells, RPMI 5 mM glucose + 10% FBS
Settings | cell viability [%]
0.000781 µM | 84.9
0.00234 µM | 115
0.00702 µM | 133
0.0211 µM | 148
0.0632 µM | 129
0.19 µM | 43.9
0.569 µM | 137
1.71 µM | 94.4
5.12 µM | 88.3
15.4 µM | 108
46.1 µM | 152

AUC of viability dose-response curve
Settings | HPLM + 10% dialyzed FBS | RPMI 5 mM glucose + 10% FBS | RPMI 5 mM glucose + 10% dialyzed FBS
NOMO1 [1] | 462 | 473 | 465
P12-Ichikawa [2] | 446 | 437 | 424

C[C@]1(O)CC(C1)C2=NC(=C3[N]2C=CN=C3N)C4=CC5=C(C=C4)C=CC(=N5)C6=CC=CC=C6 (configuration not stated)
cell viability [%]
Settings | NOMO1 [3] | P12-Ichikawa [4] | SEM cells
HPLM + 10% dialyzed FBS, 0.000781 µM | 95.7 | 94 | 77.3
HPLM + 10% dialyzed FBS, 0.00234 µM | 83.7 | 97.3 | 81.7
HPLM + 10% dialyzed FBS, 0.00702 µM | 104 | 104 | 87.6
HPLM + 10% dialyzed FBS, 0.0211 µM | 89.9 | 103 | 90.4
HPLM + 10% dialyzed FBS, 0.0632 µM | 107 | 107 | 87.1
HPLM + 10% dialyzed FBS, 0.19 µM | 72.2 | 97.7 | 67.6
HPLM + 10% dialyzed FBS, 0.569 µM | 75.1 | 105 | 76
HPLM + 10% dialyzed FBS, 1.71 µM | 53.8 | 97.4 | 47.2
HPLM + 10% dialyzed FBS, 5.12 µM | 31.8 | 75.5 | 26.5
HPLM + 10% dialyzed FBS, 15.4 µM | 3.24 | 4.9 | 3.17
HPLM + 10% dialyzed FBS, 46.1 µM | 4.22 | 1.89 | 2.38
RPMI 5 mM glucose + 10% FBS, 0.000781 µM | 86 | 102 | 95.8
RPMI 5 mM glucose + 10% FBS, 0.00234 µM | 88 | 101 | 96.8
RPMI 5 mM glucose + 10% FBS, 0.00702 µM | 92.8 | 103 | 105
RPMI 5 mM glucose + 10% FBS, 0.0211 µM | 85.6 | 101 | 103
RPMI 5 mM glucose + 10% FBS, 0.0632 µM | 87.4 | 93.5 | 105
RPMI 5 mM glucose + 10% FBS, 0.19 µM | 85.3 | 89.6 | 66.4
RPMI 5 mM glucose + 10% FBS, 0.569 µM | 83.5 | 96.4 | 68.8
RPMI 5 mM glucose + 10% FBS, 1.71 µM | 64.3 | 59.5 | 42.2
RPMI 5 mM glucose + 10% FBS, 5.12 µM | 33.7 | 50.3 | 16.6
RPMI 5 mM glucose + 10% FBS, 15.4 µM | 3.26 | 3.05 | 3.06
RPMI 5 mM glucose + 10% FBS, 46.1 µM | 2.26 | 1.49 | 1.58
RPMI 5 mM glucose + 10% dialyzed FBS, 0.000781 µM | 86.2 | 96.1 | 77.7
RPMI 5 mM glucose + 10% dialyzed FBS, 0.00234 µM | 73.9 | 96.5 | 67.5
RPMI 5 mM glucose + 10% dialyzed FBS, 0.00702 µM | 83.8 | 94.5 | 80.7
RPMI 5 mM glucose + 10% dialyzed FBS, 0.0211 µM | 91.6 | 98.2 | 84
RPMI 5 mM glucose + 10% dialyzed FBS, 0.0632 µM | 90.5 | 101 | 87.2
RPMI 5 mM glucose + 10% dialyzed FBS, 0.19 µM | 65.8 | 94.5 | 55.8
RPMI 5 mM glucose + 10% dialyzed FBS, 0.569 µM | 82.5 | 99 | 72.5
RPMI 5 mM glucose + 10% dialyzed FBS, 1.71 µM | 53.3 | 71 | 42.7
RPMI 5 mM glucose + 10% dialyzed FBS, 5.12 µM | 37.7 | 58.2 | 24.3
RPMI 5 mM glucose + 10% dialyzed FBS, 15.4 µM | 4.27 | 4.69 | 3.02
RPMI 5 mM glucose + 10% dialyzed FBS, 46.1 µM | 1.68 | 1.85 | 1.93

AUC of viability dose-response curve
Settings | HPLM + 10% dialyzed FBS | RPMI 5 mM glucose + 10% FBS | RPMI 5 mM glucose + 10% dialyzed FBS
NOMO1 [1] | 321 | 319 | 301
P12-Ichikawa [2] | 396 | 358 | 366
